Measured values as given in PubChem BioAssay AID330 (DTP/NCI, 2004).
Several values for one entry are separate records, joined by “and”; a condition that tells them apart may be missing. Identical values can stand only once. Toxic doses and inconclusive results are not listed. Peptide text beside a SMILES is read from it. * marks the point of attachment. For = O=C*

Tested on: P388 leukemia ip, CD2F1 mice, survival T/C
Experiment: NCI In Vivo Anticancer Drug Screen. Data for tumor model P388 Leukemia (intraperitoneal) in CD2F1 (CDF1) mice
Conditions: endpoint: median survival time, higher = longer survival
Summary of the method: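 Mice carrying the transplanted tumor received test compound or vehicle. Survival was recorded in each group, and the value is the treated-group measurement divided by that of the vehicle-treated control group.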

[1] = dose: 15.0 mg/kg/injection, schedule: Q01DX005 (ip), vehicle: saline with Tween-80
[2] = dose: 30.0 mg/kg/injection, schedule: Q01DX005 (ip), vehicle: saline with Tween-80
[3] = dose: 60.0 mg/kg/injection, schedule: Q01DX005 (ip), vehicle: saline with Tween-80
[4] = dose: 240.0 mg/kg/injection, schedule: Q01DX005 (ip), vehicle: saline with Tween-80
[5] = dose: 50.0 mg/kg/injection, schedule: Q01DX009 (ip), vehicle: Klucel (hydroxypropylcellulose) (HPC)
[6] = dose: 100.0 mg/kg/injection, schedule: Q01DX009 (ip), vehicle: Klucel (hydroxypropylcellulose) (HPC)
[7] = dose: 200.0 mg/kg/injection, schedule: Q01DX009 (ip), vehicle: Klucel (hydroxypropylcellulose) (HPC)
[8] = dose: 50.0 mg/kg/injection, schedule: Q01DX005 (ip), vehicle: saline with Tween-80
[9] = dose: 100.0 mg/kg/injection, schedule: Q01DX005 (ip), vehicle: saline with Tween-80
[10] = dose: 100.0 mg/kg/injection, schedule: Q01DX001 (ip), vehicle: Klucel (hydroxypropylcellulose) (HPC)
[11] = dose: 200.0 mg/kg/injection, schedule: Q01DX001 (ip), vehicle: Klucel (hydroxypropylcellulose) (HPC)
[12] = dose: 120.0 mg/kg/injection, schedule: Q01DX005 (ip), vehicle: saline with Tween-80
[13] = dose: 25.0 mg/kg/injection, schedule: Q01DX009 (ip), vehicle: Klucel (hydroxypropylcellulose) (HPC)
[14] = dose: 60.0 mg/kg/injection, schedule: Q01DX005 (ip), vehicle: Klucel (hydroxypropylcellulose) (HPC)

COc1ccc(/C=N\NC(=O)CNC(=O)Nc2cccc([N+](=O)[O-])c2)cc1O
T/C [1]: 107 % of control | T/C [2]: 93 % of control | T/C [3]: 89 % of control | T/C [4]: 91 % of control and 93 % of control

COC(=O)C1(C(=O)OC)ON1C(C)(C)C (stereo not given)
T/C (dose: 50.0 mg/kg/injection, schedule: Q01DX005 (ip), vehicle: Klucel (hydroxypropylcellulose) (HPC)): 100 % of control | T/C (dose: 100.0 mg/kg/injection, schedule: Q01DX005 (ip), vehicle: Klucel (hydroxypropylcellulose) (HPC)): 96 % of control | T/C (dose: 200.0 mg/kg/injection, schedule: Q01DX005 (ip), vehicle: Klucel (hydroxypropylcellulose) (HPC)): 97 % of control

CC(COCNc1ccccc1)C(=O)O (stereo not given)
T/C [5]: 103 % of control | T/C [6]: 103 % of control | T/C [7]: 100 % of control

c1ccc(Nc2nnnn2-c2ccccc2)cc1
T/C (dose: 25.0 mg/kg/injection, schedule: Q01DX005 (ip), vehicle: saline with Tween-80): 100 % of control | T/C [8]: 100 % of control | T/C [9]: 104 % of control

C[Si](C)(C)N1C(=O)c2ccccc2C1=O
T/C [5]: 100 % of control | T/C [6]: 115 % of control | T/C [7]: 107 % of control

COC(=O)C1(C)Cc2cc(OC(C)=O)c(OC(C)=O)cc2N1 (stereo not given)
T/C (dose: 25.0 mg/kg/injection, schedule: Q01DX001 (ip), vehicle: Klucel (hydroxypropylcellulose) (HPC)): 109 % of control | T/C (dose: 50.0 mg/kg/injection, schedule: Q01DX001 (ip), vehicle: Klucel (hydroxypropylcellulose) (HPC)): 100 % of control | T/C [10]: 109 % of control | T/C [11]: 114 % of control

N#Cc1ccc(N=NN2CCOC2)cc1
T/C [3]: 86 % of control | T/C [12]: 100 % of control | T/C [4]: 93 % of control

COC1/C=C/OC2(C)Oc3c(C)c(O)c4c(O)c(c5c(nc(-c6ccco6)n5-c5ccccc5)c4c3C2=O)NC(=O)/C(C)=C\C=C\C(C)C(O)C(C)C(O)C(C)C(OC(C)=O)C1C (stereo not given)
T/C [13]: 89 % of control | T/C [5]: 95 % of control | T/C [6]: 95 % of control | T/C [7]: 93 % of control

O=C(O)c1cc2ccccc2c2c3c(ccc12)OCO3
T/C [3]: 95 % of control | T/C [12]: 100 % of control | T/C [4]: 100 % of control

c1ccc2cc(N=NNc3ccc4ccccc4c3)ccc2c1
T/C (dose: 50.0 mg/kg/injection, schedule: Q01DX009 (ip), vehicle: saline with Tween-80): 122 % of control | T/C (dose: 50.0 mg/kg/injection, schedule: Q04DX003 (ip), vehicle: saline with Tween-80): 90 % of control | T/C (dose: 100.0 mg/kg/injection, schedule: Q01DX009 (ip), vehicle: saline with Tween-80): 95 % of control | T/C (dose: 100.0 mg/kg/injection, schedule: Q04DX003 (ip), vehicle: saline with Tween-80): 100 % of control | T/C (dose: 200.0 mg/kg/injection, schedule: Q04DX003 (ip), vehicle: saline with Tween-80): 109 % of control

c1ccc(-c2ccccc2C2=NC2)c(C2=NC2)c1
T/C (dose: 25.0 mg/kg/injection, schedule: Q04DX002 (ip), vehicle: saline with Tween-80): 99 % of control | T/C (dose: 50.0 mg/kg/injection, schedule: Q04DX002 (ip), vehicle: saline with Tween-80): 100 % of control | T/C (dose: 100.0 mg/kg/injection, schedule: Q04DX002 (ip), vehicle: saline with Tween-80): 99 % of control and 94 % of control

CC(C)C(NC=O)C(=O)NCC(=O)NC(CO)C(=O)NC(CCC(=O)O)C(=O)O (stereo not given) (For-VGSE-OH; configuration not given here)
T/C (dose: 9.0 mg/kg/injection, schedule: Q01DX005 (ip), vehicle: water): 110 % of control | T/C (dose: 18.0 mg/kg/injection, schedule: Q01DX005 (ip), vehicle: water): 101 % of control | T/C (dose: 36.0 mg/kg/injection, schedule: Q01DX005 (ip), vehicle: water): 110 % of control | T/C (dose: 72.0 mg/kg/injection, schedule: Q01DX005 (ip), vehicle: water): 110 % of control | T/C (dose: 144.0 mg/kg/injection, schedule: Q01DX005 (ip), vehicle: water): 106 % of control

CC1(O)c2ccccc2C(C)(O)c2c1ccc1ccccc21 (stereo not given)
T/C [8]: 95 % of control | T/C [9]: 87 % of control

C[n+]1ccccc1-c1ccc[n+](CCCCC[n+]2cccc(-c3cccc[n+]3C)c2)c1
T/C (dose: 50.0 mg/kg/injection, schedule: Q01DX005 (ip), vehicle: saline): 100 % of control and 104 % of control | T/C (dose: 100.0 mg/kg/injection, schedule: Q01DX005 (ip), vehicle: saline): 99 % of control and 104 % of control | T/C (dose: 200.0 mg/kg/injection, schedule: Q01DX005 (ip), vehicle: saline): 107 % of control

O=c1oc2ccccc2c(O)c1C(c1ccc(Cl)cc1)c1c(O)c2ccccc2oc1=O
T/C [1]: 94 % of control | T/C [2]: 93 % of control

Nc1nc(Sc2ccc([N+](=O)[O-])c3nonc23)c2ncn(C3OC(CO)C(O)C3O)c2n1 (stereo not given)
T/C (dose: 3.12 mg/kg/injection, schedule: Q01DX009 (ip), vehicle: Klucel (hydroxypropylcellulose) (HPC)): 113 % of control | T/C (dose: 6.25 mg/kg/injection, schedule: Q01DX009 (ip), vehicle: Klucel (hydroxypropylcellulose) (HPC)): 113 % of control | T/C [13]: 122 % of control | T/C [5]: 102 % of control and 118 % of control

O=C(O)C1C2C=CC(C1C(=O)O)N(/C=C/c1ccccc1)C2=O (stereo not given)
T/C (dose: 100.0 mg/kg/injection, schedule: Q04DX003 (ip), vehicle: Klucel (hydroxypropylcellulose) (HPC)): 102 % of control | T/C (dose: 200.0 mg/kg/injection, schedule: Q04DX003 (ip), vehicle: Klucel (hydroxypropylcellulose) (HPC)): 91 % of control | T/C (dose: 400.0 mg/kg/injection, schedule: Q04DX003 (ip), vehicle: Klucel (hydroxypropylcellulose) (HPC)): 90 % of control

COC(=O)C1C(=O)C(C(=O)OC)C2(C)C(C(=O)OC)C(=O)C(C(=O)OC)C12C (stereo not given)
T/C [14]: 103 % of control | T/C (dose: 120.0 mg/kg/injection, schedule: Q01DX005 (ip), vehicle: Klucel (hydroxypropylcellulose) (HPC)): 102 % of control | T/C (dose: 240.0 mg/kg/injection, schedule: Q01DX005 (ip), vehicle: Klucel (hydroxypropylcellulose) (HPC)): 103 % of control

O=C1OC(Cc2ccccc2)=C(Cl)C(Cl)(Cc2ccccc2)C1Cl (stereo not given)
T/C [10]: 100 % of control | T/C [11]: 108 % of control

COC(=O)/C(=C/c1ccccc1)N(C(C)=O)C(C)=O
T/C [3]: 100 % of control | T/C [12]: 105 % of control | T/C [4]: 107 % of control

Clc1c2ccccc2[se][n+]1Cc1ccccc1
T/C (dose: 12.5 mg/kg/injection, schedule: Q01DX009 (ip), vehicle: Klucel (hydroxypropylcellulose) (HPC)): 104 % of control and 108 % of control and 111 % of control | T/C [13]: 105 % of control and 106 % of control and 112 % of control | T/C [5]: 105 % of control and 107 % of control and 121 % of control | T/C [6]: 106 % of control and 110 % of control

COc1cc(OC)c(NC(=O)C2=C(C)NC(C)=C(C(=O)Nc3cc(Cl)c(OC)cc3OC)C2c2cccc([N+](=O)[O-])c2)cc1Cl
T/C (dose: 15.0 mg/kg/injection, schedule: Q01DX005 (ip), vehicle: Klucel (hydroxypropylcellulose) (HPC)): 101 % of control | T/C (dose: 30.0 mg/kg/injection, schedule: Q01DX005 (ip), vehicle: Klucel (hydroxypropylcellulose) (HPC)): 100 % of control | T/C [14]: 101 % of control and 93 % of control

COC(OC)C1CC=CCCC1C(=O)O (stereo not given)
T/C (dose: 60.0 mg/kg/injection, schedule: Q01DX005 (ip), vehicle: saline): 91 % of control | T/C (dose: 120.0 mg/kg/injection, schedule: Q01DX005 (ip), vehicle: saline): 107 % of control | T/C (dose: 240.0 mg/kg/injection, schedule: Q01DX005 (ip), vehicle: saline): 96 % of control

CCOC(=S)SCC(=O)NC
T/C (dose: 50.0 mg/kg/injection, schedule: Q01DX009 (ip), vehicle: saline): 98 % of control | T/C (dose: 100.0 mg/kg/injection, schedule: Q01DX009 (ip), vehicle: saline): 107 % of control | T/C (dose: 200.0 mg/kg/injection, schedule: Q01DX009 (ip), vehicle: saline): 104 % of control

COc1cc2c(c(OC)c1OC)-c1ccc(OC)c(=O)cc1[C@@H](NC(=O)CF)CC2
T/C (dose: 23.4 micrograms/kg/injection, schedule: Q01DX009 (ip), vehicle: saline): 121 % of control | T/C (dose: 93.7 micrograms/kg/injection, schedule: Q01DX009 (ip), vehicle: saline): 152 % of control | T/C (dose: 187.5 micrograms/kg/injection, schedule: Q01DX009 (ip), vehicle: saline): 152 % of control | T/C (dose: 250.0 micrograms/kg/injection, schedule: Q04DX003 (ip), vehicle: saline): 163 % of control | T/C (dose: 375.0 micrograms/kg/injection, schedule: Q01DX009 (ip), vehicle: saline): 161 % of control | T/C (dose: 500.0 micrograms/kg/injection, schedule: Q04DX003 (ip), vehicle: saline): 204 % of control | T/C (dose: 2000.0 micrograms/kg/injection, schedule: Q04DX003 (ip), vehicle: saline): 122 % of control
